Values quoted from earlier work as cited in article PMC9795861, “Inclusion complexes of the steroid hormones 17β-estradiol and progesterone with β- and γ-cyclodextrin hosts: syntheses, X-ray structures, thermal analyses and API solubility enhancements” (Beilstein Journal of Organic Chemistry, 2022).
Like-named read-outs stand apart in the source and are kept apart here.

What was measured:
[1] = set-up: method as in earlier work

| Structure (SMILES) | oral bioavailability relative to that of BES [1] | aqueous solubility (at 27 °C, ethinylestradiol) | aqueous solubility (at 25 °C, pure progesterone, ref 6-8 (b3)) |
| --- | --- | --- | --- |
| C#C[C@]1(O)CC[C@H]2[C@@H]3CCc4cc(O)ccc4[C@H]3CC[C@@]21C [ethinylestradiol] | significantly higher | 11.3 × 10^−3 mg·cm^−3 |  |
| CC(=O)[C@H]1CC[C@H]2[C@@H]3CCC4=CC(=O)CC[C@]4(C)[C@H]3CC[C@]12C [progesterone] |  |  | 8.81 × 10^−3 mg·cm^−3 |
